# Test results as given in patent publication US20250129054A1 (Terran Biosciences Inc., priority 2022, published 2025).
# Structures can show the parent of a compound that is named as a salt.
# Assay: Serial tail vein bleed PK study in SD rats: methylone measured in plasma after IV or oral methylone or oral methylone prodrugs
# Type: in vivo, Sprague Dawley rats
# Settings: for Plasma Concentrations of metabolite methylone: 10 mg/kg, rat; for Tlast: analyte methylone in plasma, oral methylone THP 1-ethyl ester prodrug 10 mg/kg, male SD rats
# Procedure: A pharmacokinetic (PK) study was performed in three male Sprague-Dawley (SD) rats following intravenous (IV) and oral (PO) administration of methylone at 1 mg/kg (IV) and 10 mg/kg (PO) respectively, or test compounds (prodrugs of methylone) at 10 mg/kg (PO). Parent compound (methylone) was measured in plasma.
# Samples were sent for method optimization and measurement of parent compound (methylone) via unique calibration lines and following acceptance QC's. Dose formulation concentrations were also measured, and PK parameters were determined (Cmax (ng/mL), Tmax (hr), Cl (ml/min/kg), Vdss (L/kg), t½(hr), AUC0-t (ng/mL*hr), AUC0-inf (ng/mL*hr), MIRT (hr), Bioavailability ([…]) where warranted) using WinNon Lin software. Data (including bioanalytical results and assay performance) were reported in a tabulated format.
# Formulation for PO Administration: For PO dosing, the prodrug was formulated in 10% DMSO/20% PEG400/70% water to a concentration of 2 mg free metabolite material/mL. This provided a dose of 10 mg free metabolite/kg when the prodrug was administered PO in 5 mL/kg dosing volumes.
# Formulation for IV administration: For IV dosing, rac-methylone was formulated as solution in saline to a concentration of 0.5 mg free metabolite material/mL. This provided a dose of 1 mg free metabolite/kg when administered IV in 2 mL/kg dosing volumes.
# The pharmacokinetic properties of the synthesized methylone prodrugs after oral administration in a rat model were assessed. The concentration of methylone was measured in each rat at various sampling timepoints after IV or oral administration of rac-methylone or the synthesized methylone prodrugs to rats.
# Dose formulations were made at equivalent concentrations of active compound (methylone) adjusted for molecular weight of the compounds. The synthesized methylone prodrugs or analogs were dosed at 10 mg/kg oral (PO) nominal dose. Nominal doses were used in PK parameter determinations. The parent compound (methylone) was dosed at 1 mg/kg intravenous (IV) and 10 mg/kg (PO).
# [1] = 0.500 h after oral dosing of the prodrug, individual animals
# [2] = 0.500 h after oral dosing of the prodrug, mean
# [3] = 1.00 h after oral dosing of the prodrug, individual animals
# [4] = 1.00 h after oral dosing of the prodrug, mean
# [5] = 2.00 h after oral dosing of the prodrug, individual animals
# [6] = 2.00 h after oral dosing of the prodrug, mean
# [7] = 4.00 h after oral dosing of the prodrug, individual animals
# [8] = 4.00 h after oral dosing of the prodrug, mean
# [9] = 7.00 h after oral dosing of the prodrug, individual animals
# [10] = 7.00 h after oral dosing of the prodrug, mean
# [11] = 24.0 h after oral dosing of the prodrug, individual animals
# [12] = 24.0 h after oral dosing of the prodrug, mean
Molecule,Plasma Concentrations of metabolite methylone [1],Plasma Concentrations of metabolite methylone [2],Plasma Concentrations of metabolite methylone [3],Plasma Concentrations of metabolite methylone [4],Plasma Concentrations of metabolite methylone [5],Plasma Concentrations of metabolite methylone [6],Plasma Concentrations of metabolite methylone [7],Plasma Concentrations of metabolite methylone [8],Plasma Concentrations of metabolite methylone [9],Plasma Concentrations of metabolite methylone [10],Plasma Concentrations of metabolite methylone [11],Plasma Concentrations of metabolite methylone [12],Tlast (individual animal),Tlast (mean)
"CC(C)COC(=O)N(C)C(C)C(=O)c1ccc2c(c1)OCO2 (centres unmarked) [Compound 1D, iso-Butyl N-[2-(1,3-benzodioxol-5-yl)-1-methyl-2-oxo-ethyl]-N-methyl-carbamate]",BLQ (Below Lower Limit of Quantification (0.5 ng/mL)),BLQ (Below Lower Limit of Quantification (0.5 ng/mL)),BLQ (Below Lower Limit of Quantification (0.5 ng/mL)),BLQ (Below Lower Limit of Quantification (0.5 ng/mL)),BLQ (Below Lower Limit of Quantification (0.5 ng/mL)),BLQ (Below Lower Limit of Quantification (0.5 ng/mL)),BLQ (Below Lower Limit of Quantification (0.5 ng/mL)),BLQ (Below Lower Limit of Quantification (0.5 ng/mL)),BLQ (Below Lower Limit of Quantification (0.5 ng/mL)),BLQ (Below Lower Limit of Quantification (0.5 ng/mL)),BLQ (Below Lower Limit of Quantification (0.5 ng/mL)),BLQ (Below Lower Limit of Quantification (0.5 ng/mL)),–,–
"1-[[2-(1,3-Benzodioxol-5-yl)-1-methyl-2-oxo-ethyl]-methyl-carbamoyl]oxyethyl tetrahydropyran-4-carboxylate [Compound 6E]",–,–,–,–,–,–,–,–,–,–,–,–,7.00 h,7.00 h
"CC(C)OC(=O)N(C)C(C)C(=O)c1ccc2c(c1)OCO2 (centres unmarked) [Compound 1B, iso-Propyl N-[2-(1,3-benzodioxol-5-yl)-1-methyl-2-oxo-ethyl]-N-methyl-carbamate]",BLQ (Below Lower Limit of Quantification (0.5 ng/mL)),BLQ (Below Lower Limit of Quantification (0.5 ng/mL)),BLQ (Below Lower Limit of Quantification (0.5 ng/mL)),BLQ (Below Lower Limit of Quantification (0.5 ng/mL)),BLQ (Below Lower Limit of Quantification (0.5 ng/mL)),BLQ (Below Lower Limit of Quantification (0.5 ng/mL)),BLQ (Below Lower Limit of Quantification (0.5 ng/mL)),BLQ (Below Lower Limit of Quantification (0.5 ng/mL)),BLQ (Below Lower Limit of Quantification (0.5 ng/mL)),BLQ (Below Lower Limit of Quantification (0.5 ng/mL)),BLQ (Below Lower Limit of Quantification (0.5 ng/mL)),BLQ (Below Lower Limit of Quantification (0.5 ng/mL)),–,–
"CC1C(c2ccc3c(c2)OCO3)=N[C@@H](CCCCN)C(=O)N1C (some centres unmarked) [Compound 4A, dihydrochloride]",BLQ (Below Lower Limit of Quantification (0.5 ng/mL)),BLQ (Below Lower Limit of Quantification (0.5 ng/mL)),BLQ (Below Lower Limit of Quantification (0.5 ng/mL)),BLQ (Below Lower Limit of Quantification (0.5 ng/mL)),BLQ (Below Lower Limit of Quantification (0.5 ng/mL)),BLQ (Below Lower Limit of Quantification (0.5 ng/mL)),BLQ (Below Lower Limit of Quantification (0.5 ng/mL)),BLQ (Below Lower Limit of Quantification (0.5 ng/mL)),BLQ (Below Lower Limit of Quantification (0.5 ng/mL)),BLQ (Below Lower Limit of Quantification (0.5 ng/mL)),BLQ (Below Lower Limit of Quantification (0.5 ng/mL)),BLQ (Below Lower Limit of Quantification (0.5 ng/mL)),–,–
"CC(C(=O)c1ccc2c(c1)OCO2)N(C)C(=O)[C@H](CCCCNC(=O)OC(C)(C)C)NC(=O)OC(C)(C)C (stereo partly drawn) [Compound 3E, tert-Butyl N-[(5S)-6-[[2-(1,3-benzodioxol-5-yl)-1-methyl-2-oxo-ethyl]-methyl-amino]-5-(tert-butoxycarbonylamino)-6-oxo-hexyl]carbamate]",BLQ (Below Lower Limit of Quantification (0.5 ng/mL)),BLQ (Below Lower Limit of Quantification (0.5 ng/mL)),BLQ (Below Lower Limit of Quantification (0.5 ng/mL)),BLQ (Below Lower Limit of Quantification (0.5 ng/mL)),BLQ (Below Lower Limit of Quantification (0.5 ng/mL)),BLQ (Below Lower Limit of Quantification (0.5 ng/mL)),BLQ (Below Lower Limit of Quantification (0.5 ng/mL)),BLQ (Below Lower Limit of Quantification (0.5 ng/mL)),BLQ (Below Lower Limit of Quantification (0.5 ng/mL)),BLQ (Below Lower Limit of Quantification (0.5 ng/mL)),BLQ (Below Lower Limit of Quantification (0.5 ng/mL)),BLQ (Below Lower Limit of Quantification (0.5 ng/mL)),–,–
"CCOC(=O)N(C)C(C)C(=O)c1ccc2c(c1)OCO2 (centres unmarked) [Compound 1A, Ethyl N-[2-(1,3-benzodioxol-5-yl)-1-methyl-2-oxo-ethyl]-N-methyl-carbamate]",BLQ (Below Lower Limit of Quantification (0.5 ng/mL)),BLQ (Below Lower Limit of Quantification (0.5 ng/mL)),BLQ (Below Lower Limit of Quantification (0.5 ng/mL)),BLQ (Below Lower Limit of Quantification (0.5 ng/mL)),BLQ (Below Lower Limit of Quantification (0.5 ng/mL)),BLQ (Below Lower Limit of Quantification (0.5 ng/mL)),BLQ (Below Lower Limit of Quantification (0.5 ng/mL)),BLQ (Below Lower Limit of Quantification (0.5 ng/mL)),BLQ (Below Lower Limit of Quantification (0.5 ng/mL)),BLQ (Below Lower Limit of Quantification (0.5 ng/mL)),BLQ (Below Lower Limit of Quantification (0.5 ng/mL)),BLQ (Below Lower Limit of Quantification (0.5 ng/mL)),–,–
